Paper PMC12236907, “A Natural Depsipeptide Antibiotic that Targets the E site of the Bacterial Ribosome” (Research Square, 2025)

Assays:
[1] = test system: bacterial translation; details: ref [32],[33]; cited from earlier work
Description: Bound in its primary site, MKM obstructs placement of C75 and A76 of the CCA end of a deacylated tRNA within the E-site of the large ribosomal subunit, with the most significant overlap of Phe3 of MKM with the 3’ terminal adenine of the E-tRNA (Fig. 3h).

[2] = test system: eukaryotic ribosome; details: ref [23],[29],[55]; cited from earlier work
From the text: Superficially, the mode of action of MKM resembles that of CHX, since MKM also stalls the elongating ribosome. However, the mechanism of translation inhibition by CHX and MKM are likely to be principally different. Because of the small size of CHX, it was proposed to co-accommodate in the E site of the eukaryotic ribosome ...

[3] = test system: K. pneumoniae ATCC 33495 and C1559; assay: C. elegans – K. pneumoniae in vivo antibiotic activity assay (survival); design: species or system K. pneumoniae in Caenorhabditis elegans; details: MKM 64 μg/ml or polymyxin B 25 μg/ml, 6 days, vs DMSO; Log-rank (Mantel–Cox) test
Description: A C. elegans double mutant strain, AU37 (glp-4(bn2);sek-1(km4)), was used for this assay due to its enhanced pathogen infection sensitivity and temperature-sensitive sterility. The infection protocol was carried out as previously described, with slight modifications to accommodate our experimental conditions. Standard C. elegans media and protocols were used for the maintenance and growth of worms. To summarize, eggs were collected from gravid adult worms by bleaching and incubated on solid agar plates at 25 °C for 48 hours, until early adulthood. Worms were thoroughly washed with M9 buffer and transferred onto LB agar plates containing lawns of infective K. pneumoniae and incubated for another 24 hours. Worms were then washed from plates and resuspended in M9 to an approximate 2 worm per microlitre concentration. A survival assay was conducted in a 96-well plate with experimental wells containing 15 μl of worms, 80 μl S-basal (5.85 g NaCl, 1 g K2HPO4, 6 g KH2PO4, 1 ml cholesterol (5 mg/ml in ethanol), H2O to 1 litre. Sterilize by autoclaving), and 5 μl of test compound. Plates were sealed with a porous film and incubated at 25°C for a total of 7 days. The number of dead worms were counted every 24 hours to generate a Kaplan-Meier survival curve.

| Molecule | inhibition of bacterial translation [1] | effect on eukaryotic translation [2] | survival benefit in C. elegans (in words) [3] |
| --- | --- | --- | --- |
| C/C=C\[C@H](C)[C@H]1O[C@]1(C)[C@@H](O)[C@H]1COC(=O)[C@H](O)[C@@H](OC)[C@H](C)C(=O)[C@H](C)[C@@H](O)/C(C)=C/[C@H](C)C(=O)CC[C@@H](C)C1=O [13-deoxytedanolide] | do not inhibit bacterial translation |  |  |
| C[C@@H]1C[C@@H]([C@H](O)CC2CC(=O)NC(=O)C2)C(=O)[C@@H](C)C1 [cycloheximide] | do not inhibit bacterial translation | arrests the elongating ribosome |  |
| C/C(=C\[C@H](C)C(=O)C[C@H](O)CC1CC(=O)NC(=O)C1)[C@@H]1OC(=O)/C=C/CC/C=C/C=C\[C@@H]1C [lactimidomycin] | do not inhibit bacterial translation | captures the ribosomes at start codons but has little effect on translation elongation or termination |  |
| CC(=O)O[C@@H]1[C@@H](O)[C@H](O[C@H]2[C@H](OC(=O)[C@H]3CC[C@@H]4[C@H](C3)O[C@@]3(C[C@H](OC(=O)/C=C/c5ccccc5)[C@H](C)CO3)[C@]43CO3)O[C@H](C)[C@@H](O)[C@@H]2OC(C)=O)O[C@H](C)[C@H]1O [phyllanthoside] | do not inhibit bacterial translation |  |  |
| polymyxin B [reference compound] |  |  | significantly improved survival |
